Test results as given in PMC4136963, “Structure-Based Design and Synthesis of Antiparasitic Pyrrolopyrimidines Targeting Pteridine Reductase 1” (Journal of Medicinal Chemistry, 2014).
Where a name gives a salt, the structure may show the parent alone. Read-outs that look alike come from different tables or passages of the source.

Key:
T. b. brucei = assay: microbe, parasite or virus in culture; assay type: cell-based, T. b. brucei (strain Lister 427)
Description: Cells were routinely diluted when reaching the mid-log-phase concentration of 2 × 10^6 cells/mL and maintained in culture for no more than 30 passages.
Compounds’ potency against trypanosomes was assessed by Alamar blue assay.[31] Cells were seeded at a final concentration of 2 × 10^4 cells/mL into serial dilutions of the test compound. After 48 h incubation at 37 °C and 5% CO2, 20 μL of resazurin dye (Sigma-Aldrich) solution at 0.49 mM was added, and cells were incubated for a further 24 h. The reduction of resazurin was measured with a fluorimeter (FLUOstar Optima, BMG Labtech) using 544 nm excitation and 590 nm emission wavelengths. Output was plotted using the IC50 determination algorithm of the GraphPad Prism 5.0 software. All experiments were carried out in duplicate and repeated on at least three independent occasions.

[1] = Metabolic stability in microsomal assay (t1/2); assay type: in vitro ADME; conditions: microsomes
[2] = Plasma binding (fraction unbound); assay type: in vitro ADME; conditions: mouse; fraction unbound by plasma; read-out: plasma bind fu
Clearance (Cli) = assay type: in vitro ADME; conditions: footnote: Cli is the clearance in vivo
HEK 293T cells = assay: cells; assay type: cell-based, human; conditions: read-out: HEK (IC50 μM)
T. b. brucei strain 427 = conditions: infected mice, 30 mg/kg i.p. once daily up to 4 days; one surviving mouse per group; from ∼10^8
Description: Twenty-four hours postinfection mice were injected intraperitoneally with 30 mg/kg daily of test compound (repeated for four consecutive days), prepared in a 10% v/v DMSO, 40% v/v PEG, and 50% v/v water solution. Parasitaemia was monitored daily by tail venipuncture. Infected, untreated mice were used as control.

[3] = Trypanosoma brucei, read-out: T. b. brucei (IC50 μM) CMM, Creek's minimal medium (CMM)
[4] = Trypanosoma brucei, read-out: T. b. brucei (IC50 μM) HMI-9, HMI-9 medium
[5] = read-out: T. b. brucei (IC50 μM) CMM, Creek's minimal medium (CMM)
[6] = half-life of the compound, read-out: t1/2
[7] = Trypanosoma brucei, read-out: T. b. brucei (IC50 μM), medium not stated
[8] = read-out: T. b. brucei (IC50 μM) HMI-9, HMI-9 medium

Structure (SMILES) | IC50 (T. b. brucei; [3]) [µM] | IC50 (T. b. brucei; [4]) [µM] | IC50 (T. b. brucei; [7]) [µM] | IC50 (HEK 293T cells; Homo sapiens, HEK-293T) [µM] | other results
Nc1nc2[nH]c(-c3ccccc3)c(-c3ccccc3)c2c(=O)[nH]1 [34a, 2-Amino-5,6-diphenyl-3,7-dihydro-4H-pyrrolo[2,3-d]pyrimidin-4-one] | 0.41 | 0.64 |  |  | IC50 (T. b. brucei; [5]): 0.407 µM; half-life [1, 6]: ~2.17 h; fraction unbound [2]: 0.029
Nc1nc2[nH]cc(CCc3ccccc3)c2c(=O)[nH]1 [27d] |  |  | 7620 |  | 
Nc1nc(N2CCCC2)c2c(C#Cc3ccccc3)c[nH]c2n1 [compound 20, 5-(Phenylethynyl)-4-(1-pyrrolidinyl)-7H-pyrrolo[2,3-d]pyrimidin-2-amine] |  |  |  |  | Cli (Clearance (Cli)): 5.6 mL/min/g
CC(C)COc1nc(N)nc(N)c1C(C[N+](=O)[O-])c1ccc(F)cc1 (stereo not shown) [30a] | 10.6 | 13.9 |  |  | 
Nc1nc(N)c(C(C[N+](=O)[O-])c2ccc(F)cc2)c(N)n1 (stereo not shown) [28b] |  |  | 0.16 | 39.1 | 
Nc1nc(N2CCSCC2)c2cc[nH]c2n1 [8b] |  |  | 80.1 |  | 
Nc1nc(N)c(C(C[N+](=O)[O-])c2ccccc2)c(N)n1 (stereo not shown) [28c, 5-(2-Nitro-1-phenylethyl)-2,4,6-pyrimidinetriamine] |  |  | 0.13 | 35 | 
Nc1nc(N)c2c(-c3ccccc3)c(-c3ccc(F)cc3)[nH]c2n1 [35b, 6-(4-Fluorophenyl)-5-phenyl-7H-pyrrolo[2,3-d]pyrimidine-2,4-diamine] | 0.08 | 0.32 |  | 49.2 | IC50 (HEK 293T cells): 49.2 µM; Cli (Clearance (Cli)): 1.90 mL/min/g; reduction of parasitaemia (T. b. brucei strain 427): below detectable limits; IC50 (T. b. brucei; [5]): 0.082 µM; IC50 (T. b. brucei; [8]): 0.321 µM; half-life [1, 6]: > 8.33 h; half-life ([1]; metabolic stability in microsomal assay, read-out: t1/2 in microsomal assay): > 8 h; fraction unbound [2]: 0.011
Nc1nc(N)c(C(C[N+](=O)[O-])c2ccc(F)cc2)c(NC2CCCCC2)n1 (stereo not shown) [30b] | 0.8 | 0.54 |  | 32.6 | 
N=C(N)c1ccc(/N=N/Nc2ccc(C(=N)N)cc2)cc1 [diminazene, reference compound] | 0.007 | 0.027 |  |  | 
Nc1nc(N)c(C(CCc2ccccc2)C[N+](=O)[O-])c(N)n1 (stereo not shown) [28d] |  |  | 8.82 |  | 
Nc1nc2[nH]c(-c3ccc(F)cc3)c(-c3ccccc3)c2c(=O)[nH]1 [34c, 2-Amino-6-(4-fluorophenyl)-5-phenyl-3,7-dihydro-4H-pyrrolo[2,3-d]pyrimidin-4-one] | 0.61 | 0.74 |  | > 200 | Cli (Clearance (Cli)): 0.17 mL/min/g; IC50 (T. b. brucei; [5]): 0.614 µM; IC50 (T. b. brucei; [8]): 0.738 µM; fraction unbound [2]: 0.017
N#Cc1c[nH]c2nc(N)nc(N3CCSCC3)c12 [12d] |  |  | 14.3 |  | 
Nc1nc(N)c(C(C[N+](=O)[O-])c2ccc(F)cc2)c(=O)[nH]1 (stereo not shown) [26b] |  |  | 1.86 | 150 | 
N#Cc1c[nH]c2nc(N)nc(N)c12 [compound 4, 2,4-diamino-7H-pyrrolo[2,3-d]pyrimidine-5-carbonitrile] |  |  | 2440 |  | 
Nc1nc2[nH]c(-c3ccc(F)cc3)c(-c3cccc(Cl)c3)c2c(=O)[nH]1 [34l] |  |  |  |  | Cli (Clearance (Cli)): <0.5 mL/min/g
Cc1ccc(C(C[N+](=O)[O-])c2c(N)nc(N)nc2N)cc1 (stereo not shown) [28a] |  |  | 0.47 | 32.5 | 
N#Cc1c(-c2cccc(C=O)c2)[nH]c2nc(N)nc(N)c12 [6a] |  |  | 6.03 |  | 
CC(C)Oc1nc(N)nc(N)c1C(C[N+](=O)[O-])c1ccc(F)cc1 (stereo not shown) [30c, 5-[1-(4-Fluorophenyl)-2-nitroethyl]-6-isopropyloxy-2,4-pyrimidinediamine] | 8.48 | 15.9 |  |  | 
Cc1ccc(C(C[N+](=O)[O-])c2c(N)nc(N)[nH]c2=O)cc1 (stereo not shown) [26a] |  |  | 2.04 | 73.4 | 
Nc1nc2[nH]c(-c3ccccc3)c(CCc3ccccc3)c2c(=O)[nH]1 [34i] |  |  |  |  | Cli (Clearance (Cli)): 2.5 mL/min/g
Nc1nc2[nH]c(-c3ccc(CCCN4CCOCC4)cc3)c(-c3ccccc3)c2c(=O)[nH]1 [compound 38, 2-Amino-6-{4-[3-(4-morpholinyl)propyl]phenyl}-5-phenyl-3,7-dihydro-4H-pyrrolo[2,3-d]pyrimidin-4-one trifluoroacetate] | 20.1 | 38.1 |  |  | 
Nc1nc(N)c(C(C[N+](=O)[O-])c2ccccc2)c(=O)[nH]1 (stereo not shown) [26c, 2,6-diamino-5-(2-nitro-1-phenylethyl)-4(3H)-pyrimidinone] |  |  | 1.02 | 134 | 
CN(Cc1cnc2nc(N)nc(N)c2n1)c1ccc(C(=O)N[C@@H](CCC(=O)O)C(=O)O)cc1 [methotrexate, reference compound] | 0.011 | 3.66 |  |  | 
Nc1nc(N)c2c(-c3ccc(F)cc3)c[nH]c2n1 [29b] |  |  |  |  | Cli (Clearance (Cli)): 1.7 mL/min/g
Nc1nc(N)c2c(-c3ccccc3)c(-c3ccccc3)[nH]c2n1 [35a, 5,6-Diphenyl-7H-pyrrolo[2,3-d]pyrimidine-2,4-diamine] | 0.58 | 2.25 |  | 62.9 | IC50 (HEK 293T cells): 62.9 µM; Cli (Clearance (Cli)): 5.26 mL/min/g; IC50 (T. b. brucei; [5]): 0.583 µM; IC50 (T. b. brucei; [8]): 2.25 µM; half-life [1, 6]: ~1.67 h; fraction unbound [2]: 0.035
